Source: patent US11124500B2, “Disubstituted pyrazole compounds” (Eli Lilly and Company, priority 2019, dated 2021)

Columns and labels:
[1] = administered for 6 weeks, subjects with NAFLD; cited from earlier work
human KHK-C = human KHK-C (Homo sapiens (Human), UniProt P50053); test: KHK enzyme activity assay, human KHK-C (F1P production, RapidFire MS); type: biochemical; details: fructose 250 μM, ATP 150 μM; average ± SEM; read-out: hKHK-C IC50
Method: (§1) KHK Enzyme Activity Assay for Human KHK-C and Human KHK-A
(§2) The intrinsic potency for inhibition of KHK C or A activity may be measured using an enzymatic assay which measures the production of FIP. Compounds are prepared in DMSO and tested in a 10-point concentration curve, to create 3-fold serial dilutions of the compounds in a 96-well plate ranging from 20 μM to 1.02 nM. Enzyme is prepared in assay buffer [50 mM 4-(2-hydroxyethyl)piperazine-1-ethanesulfonic acid (HEPES), 10 mM potassium chloride, 100 mM magnesium chloride, 2 mM tris(2-carboxyethyl)phosphine (TCEP), 0.01% n-octyl glucoside] and incubated with compounds at RT for 15 min. The reaction is carried out in 100 μL volumes containing substrate concentrations of fructose (250 μM for KHK-C assay and 1.25 mM for KHK-A assay) and ATP (150 μM for both isoforms); which are further incubated at RT for 20 min. The reaction is then halted by the addition of stop buffer; consisting of 0.2% formic acid and 1 μg/ml ^13C6-fructose-6-phosphate (^13C6-F6P) internal standard. Plates are stored in −20° C. until RapidFire MS analysis.
(§3) RapidFire MS Analysis for Quantitation of F1P
(§4) An Agilent 300 RapidFire automated extraction system (Agilent, Santa Clara, Calif.) with three HPLC quaternary pumps is coupled to an Agilent 6495 triple quadrupole mass spectrometer (Agilent Technologies, Santa Clara, Calif.) equipped with an electrospray ionization (ESI) interface source. The RapidFire Mass Spec system is equipped with a reusable RapidFire C18 (type C) solid-phase extraction (SPE) cartridge (G9205 Å).
(§5) Solvent A, used for sample loading and washing, is 6 mM octylamine (Acros Organics 129495000) brought to pH 5.0 using acetic acid. Solvent B, used for sample elution, is 20% water in ACN containing 0.1% formic acid. Samples are sequentially analyzed by aspirating 10 μL onto the collection loop under vacuum directly from multiwell plates. The 10 μL of sample is loaded onto the C18 cartridge and washed using solvent A at a flow rate of 1.25 mL/min for 5000 ms. The retained analytes are then eluted to the mass spectrometer using solvent B at a flow rate of 1.25 mL/min for 5000 ms. The system is re-equilibrated using solvent at flow rate of 1.25 mL/min for 2000 ms.
(§6) The triple quadrupole mass spectrometer is equipped with an ESI source and analytes are monitored using selected reaction monitoring (SRM) in negative mode [M−H]−. F1P is monitored at m/z 259.02/96.9 and ^13C6-fructose-6-phosphate is monitored at m/z 264.99/97. The area ratio values for F1P is calculated using ^13C6-fructose-6-phospate as internal standard.

human KHK-A = human KHK-A (Homo sapiens (Human), UniProt P50053); test: KHK enzyme activity assay, human KHK-A (F1P production, RapidFire MS); type: biochemical; details: fructose 1.25 mM, ATP 150 μM; average ± SEM; read-out: hKHK-A IC50
Chain of human KHK-A (P50053 other isoform, or with tags, fused parts or gaps): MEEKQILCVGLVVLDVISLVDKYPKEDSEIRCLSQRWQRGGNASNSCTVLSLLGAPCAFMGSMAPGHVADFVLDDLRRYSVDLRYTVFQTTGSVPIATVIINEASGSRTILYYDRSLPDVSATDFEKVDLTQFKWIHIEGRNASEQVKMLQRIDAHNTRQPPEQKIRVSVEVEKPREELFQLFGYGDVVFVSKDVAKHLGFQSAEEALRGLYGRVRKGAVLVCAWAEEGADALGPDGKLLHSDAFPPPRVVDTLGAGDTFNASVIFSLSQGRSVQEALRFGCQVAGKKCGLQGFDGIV
Method: as §1, §2, §3, §4, §5, §6

[2] = Pharmacokinetics in Sprague Dawley rats; type: in vivo; details: plasma, rat, fasted; for bioavailability: PO 2 or 3 mg/kg vs IV 1 mg/kg
Method: (§7) Liquid Chromatography with Tandem Mass Spectrometry (LC-MS/MS) Method for Pharmacokinetic Assays: Samples are extracted using a protein precipitation by adding 180 μL of MeOH:ACN (1:1, v/v) containing an internal standard to 50 μL of plasma. Samples are then diluted with MeOH:Water (1:1, v/v) to get concentrations within standard curve range. Diluted samples are analyzed by LC-MS/MS using a Sciex API 4000 triple quadrupole mass spectrometer (Applied Biosystems/MDS; Foster City, Calif.) equipped with a TurboIonSpray interface, and operated in positive ion mode. The analytes are chromatographically separated using a ECHELON C18 4 um 20×2.1 mm column. LC conditions are Water/1 M ammonium bicarbonate, (2000:10, v/v) (Mobile Phase A), and MeOH/1 M ammonium bicarbonate, (2000:10, v/v) (Mobile Phase B).
Pharmacokinetics in Sprague Dawley Rats
(§8) The compound is administered by a single oral (PO; 2 or 3 mg/kg; volume of 10 mL/kg) or intravenous (IV; 1 mg/kg; volume of 1 mL/kg) dose in vehicle. Blood is collected from each animal at multiple time points between 0 and up to 48 hours post-dosage. The plasma concentrations of Example 1 and Example 2 are determined by a LC-MS/MS method as described above.

Pharmacokinetics in dogs = type: in vivo; details: beagle, plasma, dog, fed; for bioavailability: PO 2 or 3 mg/kg vs IV 1 mg/kg
Method: as §7
as §8, with “2” for “10”, “72” for “48”

Chain of human KHK-C (P50053 whole entry): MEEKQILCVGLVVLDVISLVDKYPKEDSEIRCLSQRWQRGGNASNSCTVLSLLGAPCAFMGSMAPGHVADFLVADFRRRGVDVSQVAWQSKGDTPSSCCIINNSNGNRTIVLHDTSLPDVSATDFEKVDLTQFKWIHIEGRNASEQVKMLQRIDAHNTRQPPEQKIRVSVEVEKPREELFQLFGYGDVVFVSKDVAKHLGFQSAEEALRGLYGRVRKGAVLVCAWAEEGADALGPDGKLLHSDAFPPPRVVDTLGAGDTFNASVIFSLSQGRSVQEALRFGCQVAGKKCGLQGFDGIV

| SMILES | IC50 (human KHK-C) | IC50 (human KHK-A) | other results |
| --- | --- | --- | --- |
| C[C@H]1CCN1c1nc(N2C[C@@H]3[C@@H](CC(=O)O)[C@@H]3C2)cc(C(F)(F)F)n1 [PF-06835919] |  |  | whole liver fat (magnetic resonance imaging-proton density fat fraction) [1]: reduces whole liver fat |
| OC[C@H]1CCN1c1nc(-c2cnn(C3CNC3)c2)cc(C(F)(F)F)n1 [Example 3, [(2R)-1-[4-[1-(Azetidin-3-yl)pyrazol-4-yl]-6-(trifluoromethyl)pyrimidin-2-yl]azetidin-2-yl]methanol] | 41.9 ± 6.77 nM | 45.4 ± 29.5 nM |  |
| C[C@H]1CCN1c1nc(-c2cnn(CC(=O)N3CCN(C)CC3)c2)cc(C(F)(F)F)c1C#N [Example 20, 2-[(2S)-2-Methylazetidin-1-yl]-6-[1-[2-(4-methylpiperazin-1-yl)-2-oxo-ethyl]pyrazol-4-yl]-4-(trifluoromethyl)pyridine-3-carbonitrile] | 150 ± 243 nM | 81.8 ± 92.6 nM |  |
| C[C@H]1CN(C(=O)Cn2cc(-c3cc(C(F)(F)F)nc(N4CC[C@@H]4C)n3)cn2)CCN1 [Example 29, 2-[4-[2-[(2S)-2-Methylazetidin-1-yl]-6-(trifluoromethyl)pyrimidin-4-yl]pyrazol-1-yl]-1-[(3S)-3-methylpiperazin-1-yl]ethanone] | 38.6 nM | 103 nM |  |
| OC[C@H]1CCN1c1nc(-c2cnn(C3CCNCC3)c2)cc(C(F)(F)F)n1 [Example 2, [(2R)-1-[4-[1-(4-Piperidyl)pyrazol-4-yl]-6-(trifluoromethyl)pyrimidin-2-yl]azetidin-2-yl]methanol] | 134 ± 43.1 nM | 98.2 ± 25 nM | bioavailability [2]: 95%; clearance ([2]; single IV dose 1 mg/kg): 56.4 mL/min/kg; half-life ([2]; single IV dose 1 mg/kg): 4.29 h; half-life ([2]; single PO dose 2 or 3 mg/kg): 5.12 h; bioavailability (Pharmacokinetics in dogs): ~100%; clearance (Pharmacokinetics in dogs; single IV dose 1 mg/kg): 19.6 mL/min/kg; half-life (Pharmacokinetics in dogs; single IV dose 1 mg/kg): 10.3 h; half-life (Pharmacokinetics in dogs; single PO dose 2 or 3 mg/kg): 9.79 h |
| C[C@H]1[C@H](O)CN1c1nc(-c2cnn(C3CNC3)c2)cc(C(F)(F)F)n1 [Example 4, (2S,3R)-1-[4-[1-(Azetidin-3-yl)pyrazol-4-yl]-6-(trifluoromethyl)pyrimidin-2-yl]-2-methyl-azetidin-3-ol] | 14.4 ± 1.12 nM | 11.4 ± 4.34 nM |  |
| C[C@H]1CCN1c1nc(-c2cnn(CC(=O)N3CCNC(C)(C)C3)c2)cc(C(F)(F)F)n1 [Example 31, 1-(3,3-Dimethylpiperazin-1-yl)-2-[4-[2-[(2S)-2-methylazetidin-1-yl]-6-(trifluoromethyl)pyrimidin-4-yl]pyrazol-1-yl]ethanone] | 34.7 nM | 70.5 nM |  |
| C[C@H]1[C@H](O)CN1c1nc(-c2cnn(C3CCNCC3)c2)cc(C(F)(F)F)c1C#N [Example 7, 2-[(2S,3R)-3-Hydroxy-2-methyl-azetidin-1-yl]-6-[1-(4-piperidyl)pyrazol-4-yl]-4-(trifluoromethyl)pyridine-3-carbonitrile] | 18.1 ± 4.85 nM | 6.02 ± 2.27 nM |  |
| C[C@H]1CCN1c1nc(-c2cnn(CC(=O)N3CCNCC3)c2)cc(C(F)(F)F)n1 [Example 1, 2-[4-[2-[(2S)-2-Methylazetidin-1-yl]-6-(trifluoromethyl)pyrimidin-4-yl]pyrazol-1-yl]-1-piperazin-1-yl-ethanone] | 20.7 ± 3.88 nM | 24.2 ± 2.9 nM | bioavailability [2]: 83%; clearance ([2]; single IV dose 1 mg/kg): 5.86 mL/min/kg; half-life ([2]; single IV dose 1 mg/kg): 12.8 h; half-life ([2]; single PO dose 2 or 3 mg/kg): 12.9 h; bioavailability (Pharmacokinetics in dogs): 87%; clearance (Pharmacokinetics in dogs; single IV dose 1 mg/kg): 3.41 mL/min/kg; half-life (Pharmacokinetics in dogs; single IV dose 1 mg/kg): 28 h; half-life (Pharmacokinetics in dogs; single PO dose 2 or 3 mg/kg): 36.6 h |
| C[C@H]1CCN1c1nc(-c2cnn(CC(=O)N3C[C@@H](O)[C@H](O)C3)c2)cc(C(F)(F)F)c1C#N [Example 22, 6-[1-[2-[(3R,4R)-3,4-Dihydroxypyrrolidin-1-yl]-2-oxo-ethyl]pyrazol-4-yl]-2-[(2S)-2-methylazetidin-1-yl]-4-(trifluoromethyl)pyridine-3-carbonitrile] | 61.3 ± 57.5 nM | 33.7 ± 17.8 nM |  |
| C[C@H]1[C@H](O)CN1c1nc(-c2cnn([C@@H]3CCNC3)c2)cc(C(F)(F)F)n1 [Example 14, (2S,3R)-2-Methyl-1-[4-[1-[(3R)-pyrrolidin-3-yl]pyrazol-4-yl]-6-(trifluoromethyl)pyrimidin-2-yl]azetidin-3-ol] | 15.9 ± 4.37 nM | 19.1 ± 2.98 nM |  |

More lines, main results first:

| IC50 (human KHK-C) | IC50 (human KHK-A) | SMILES | other results |
| --- | --- | --- | --- |
| 3.71 ± 0.178 nM | 5.41 ± 6.13 nM | C[C@H]1CCN1c1nc(-c2cnn(C3CN(C)C3)c2)cc(C(F)(F)F)n1 [Example 34, 2-[(2S)-2-Methylazetidin-1-yl]-4-[1-(1-methylazetidin-3-yl)pyrazol-4-yl]-6-(trifluoromethyl)pyrimidine] |  |
| 10 nM | 3.98 nM | CN1CC(n2cc(-c3cc(C(F)(F)F)nc(N4CC[C@@H]4CO)n3)cn2)C1 [Example 36, [(2R)-1-[4-[1-(1-Methylazetidin-3-yl)pyrazol-4-yl]-6-(trifluoromethyl)pyrimidin-2-yl]azetidin-2-yl]methanol] |  |
| 2.63 nM | 1.59 nM | C[C@H]1[C@H](O)CN1c1nc(-c2cnn(C3CN(C)C3)c2)cc(C(F)(F)F)n1 [Example 35, (2S,3R)-2-Methyl-1-[4-[1-(1-methylazetidin-3-yl)pyrazol-4-yl]-6-(trifluoromethyl)pyrimidin-2-yl]azetidin-3-ol] |  |
| 4.89 nM | 6.75 nM | C[C@H]1CCN1c1nc(-c2cnn(CC(O)CO)c2)cc(C(F)(F)F)c1C#N (single isomer, unassigned; isomer 2) [Example 24b] |  |
| 13.6 ± 7.2 nM | 16.9 ± 9.7 nM | C[C@H]1CCN1c1nc(-c2cn[nH]c2)cc(C(F)(F)F)c1C#N [Example 25, 2-[(2S)-2-Methylazetidin-1-yl]-6-(1H-pyrazol-4-yl)-4-(trifluoromethyl)pyridine-3-carbonitrile] |  |
